Assays:
[1] = biological target: T1, SHMT1 (Homo sapiens, UniProt P34896); assay: Spectrophotometric quinonoid-intermediate competitive binding assay on purified recombinant SHMT1; assay type: biochemical; conditions: purified SHMT1 5.5 μM, glycine 3.0 mM, 20 μM H4PteGlu, read-out: estimated inhibition constants (IC50)
T1 construct: made in house
T1 sequence (P34896 1-483): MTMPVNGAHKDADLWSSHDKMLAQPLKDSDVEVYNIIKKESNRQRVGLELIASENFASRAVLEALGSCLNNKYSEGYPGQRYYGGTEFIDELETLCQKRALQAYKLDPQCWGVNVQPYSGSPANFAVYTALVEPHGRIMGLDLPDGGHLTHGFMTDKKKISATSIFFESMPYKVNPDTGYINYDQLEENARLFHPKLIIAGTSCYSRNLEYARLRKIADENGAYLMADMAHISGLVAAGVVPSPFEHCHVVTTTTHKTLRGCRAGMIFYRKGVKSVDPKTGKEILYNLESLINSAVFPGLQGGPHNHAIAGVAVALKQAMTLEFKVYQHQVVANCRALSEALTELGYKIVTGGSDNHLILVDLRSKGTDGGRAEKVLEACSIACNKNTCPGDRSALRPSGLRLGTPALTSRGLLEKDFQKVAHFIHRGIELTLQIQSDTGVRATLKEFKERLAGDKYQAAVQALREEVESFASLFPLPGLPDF
Method: (§1) Initially, compounds 2.2 and 2.12 (Figure 1) were tested on purified recombinant SHMT1 and SHMT2 isoforms using a spectrophotometric assay, in which the inhibitors and H4PteGlu compete for binding to the same site of the enzyme. Both isozymes (5.5 μM) were incubated with a saturating concentration of glycine (3.0 mM), in the presence of 20 μM H4PteGlu and a varying concentration of either compound 2.12 or 2.2. The activity of the enzyme was calculated from the spectrophotometric measurement of the quinonoid intermediate that develops when both glycine and H4PteGlu bind to SHMT [20]. […]
(§2) Figure 2 Activity inhibition on purified SHMTs by compound 2.12 The activity of cytosolic (black symbols) and mitochondrial (red symbols) SHMT isoforms was measured in the presence of increasing concentrations of compound 2.12. […]
(§3) Inhibition of SHMT activity by compound 2.12 was tested using competitive binding assays in which the antifolate competes for binding with H4PteGlu. […] Therefore, absorbance at 500 nm is proportional to the fraction of enzyme present as ternary complex. […] The effect of DMSO concentration on quinonoid development was analysed and found to be negligible up to 20% DMSO (v/v). […] After a rapid manual mixing, the absorbance change at 500 nm was measured. […]

[2] = biological target: T2, SHMT2 (Homo sapiens, UniProt P34897); assay: Spectrophotometric quinonoid-intermediate competitive binding assay on purified recombinant SHMT2; assay type: biochemical; conditions: purified SHMT2 5.5 μM, glycine 3.0 mM, 20 μM H4PteGlu, read-out: estimated inhibition constants (IC50)
T2 construct: made in house
T2 sequence (P34897 30-504): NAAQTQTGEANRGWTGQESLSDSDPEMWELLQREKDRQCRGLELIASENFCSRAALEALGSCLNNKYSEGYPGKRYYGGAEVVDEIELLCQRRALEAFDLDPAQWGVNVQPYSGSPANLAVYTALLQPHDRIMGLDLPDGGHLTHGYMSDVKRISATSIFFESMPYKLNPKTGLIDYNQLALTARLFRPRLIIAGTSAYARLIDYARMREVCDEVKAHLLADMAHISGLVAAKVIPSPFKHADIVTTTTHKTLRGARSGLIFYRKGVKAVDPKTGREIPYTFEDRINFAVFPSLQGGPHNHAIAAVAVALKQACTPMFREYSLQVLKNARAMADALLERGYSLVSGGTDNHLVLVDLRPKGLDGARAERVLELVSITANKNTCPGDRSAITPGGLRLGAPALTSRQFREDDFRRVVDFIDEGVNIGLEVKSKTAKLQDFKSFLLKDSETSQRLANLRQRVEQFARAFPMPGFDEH
Method: as §1, §2, §3

`CCC1(c2ccc(F)cc2)C(C#N)=C(N)Oc2[nH]nc(C)c21` (centres unmarked) [compound 2.2] was tested. Which IC50 [1] did it give?
The IC50 was 154 ± 14.4 µM.

And the IC50 [2]?
Its IC50 is 263 ± 48 µM.

Reference: article PMC4826227, “A pyrazolopyran derivative preferentially inhibits the activity of human cytosolic serine hydroxymethyltransferase and induces cell death in lung cancer cells” (Oncotarget, 2015)
